The source of these data is patent US12473295B2, “Substituted straight chain spiro derivatives” (Janssen Pharmaceutica NV, priority 2019, dated 2025).

SMILES strings stand for the structures. Where a name gives a salt, the structure may show the parent alone. Read-outs that look alike come from different tables or passages of the source.

In data set [1] the target is menin/MLL (terbium chelate-labeled menin, FITC-MBM1 peptide) (Homo sapiens (Human), UniProt O00255). Description: Menin/MLL homogenous time-resolved fluorescence (HTRF) assay.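 Also: IC50 from percent inhibition of HTRF signal, normalized between wells without competitor and wells with a saturating competitor that displaces FITC-MBM1 from His-tagged menin.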 Type of data set: binding. (Time-resolved FRET reads energy transfer from a long-lived donor to a nearby acceptor.)
A further data set deals with MOLM14 cells. Briefly: Proliferation assay (spheroid growth, 8 days), MOLM14.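 Also: spheroid size read as confluence by live-cell imaging, compounds added at a range of concentrations with 0.3% DMSO, DMSO-treated wells = 0%, highest reference dose = low control.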 The class given is cell-based, human. Particulars: MOLM14, 8 days, read-out: spheroid assay_OneTime MOLM14 IC50.
For another data set, the system named is OCI-AML3 cells. Briefly: Proliferation assay (spheroid growth, 8 days), OCI-AML3. The class given is cell-based, human. Particulars: OCI-AML3, 8 days. In a few lines: (§1)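 Spheroid size on day 8, taken as live-cell imaging confluence, served as readout after 8-day compound exposure (0.3% DMSO, 37 °C, 5% CO2) in round-bottom low-attachment wells. Seeding was 200 cells for MOLM14 and OCI-AML3, 300 for KO-52. IC50 came from % effect versus DMSO and reference baseline, fitted with variable slope.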

A further data set deals with KO-52 cells. Briefly: Proliferation assay (spheroid growth, 8 days), KO-52 control cell line. The following applies: read-out: spheroid assay_OneTime KO-52 IC50. The class given is cell-based, human. In a few lines: as §1
The next data set relates to MEIS1 mRNA. Briefly: MEIS1 mRNA expression assay (Quantigene Singleplex) in MOLM14 cells.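 Also: MEIS1 transcript levels read by probe hybridization and normalized to RPL28 mRNA, with IC50 fitted to fold changes across a rising compound concentration series.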 Type of data set: cell-based, human. Particulars: 48 hours incubation.
Data set [2] is described as follows: Mouse PK (in vivo T1/2 and oral bioavailability). Particulars: fasted male CD-1 mice, formulating agent HP-β-CD. The protocol: 3) Mouse PK (In Vivo T1/2 and Oral Bioavailability)
In vivo pharmacokinetics (PK) were assessed in fasted male CD-1 mice (age 6-8 weeks) following a single intravenous (IV, 0.5 or 1.0 mg/kg administered at 2.5 ml/kg) or oral (PO, 5 mg/kg administered at 10 ml solution/kg) dose of test article formulated in a 20% (w:vol) HP-β-CD solution or in Pyrogen free water.
Plasma and/or whole blood samples were collected from the dorsal metatarsal vein at desired timepoints via serial capillary microsampling (approx. 0.03 mL) using EDTA as an anticoagulant. Concentrations of compound in the plasma and blood samples were analyzed using a qualified LC-MS/MS method. In silico analysis of main pharmacokinetic parameters was performed using WinNonlin (Phoenix™, version 6.1) or similar software. (Results see Table 4)

Data set [3] can be described thus: Metabolic stability in human liver microsomes. The class given is in vitro ADME. The following applies: human liver microsomes 0.5 mg/mL, 1 μM test compound, pH 7.4; for microsomal CLint at 1 μM: read-out: Human LM Clint. The protocol:
(§2) 4) Metabolic Stability in Human/Mouse Liver Microsomes
(§3) The objective of this study is to measure in vitro metabolic stability of test compound(s) in human and mouse liver microsomes and provide quantitative information on the rate of metabolic turnover (i.e. determination of the apparent intrinsic clearance of test).
(§4) Test items were prepared at a stock concentration of 10 mM in DMSO. For determination of metabolic turnover, a final working solution was prepared by adding 2 μL of 10 mM DMSO stock solution for test compound or positive control compounds to 198 μL of acetonitrile (100 μM final concentration).
(§5) Incubations were performed as follows: First, liver microsomes were thawed on ice and a master solution containing liver microsomes in 100 mM PBS (phosphate-buffered saline) at pH 7.4 is prepared. Next, the liver microsomes solution was added to the incubation plates and 10 mM NADPH (Nicotinamide-adenine dinucleotide phosphate) was added (MW: 833.4 g/mol; Roche Diagnostics GmbH, Germany. Dissolved in phosphate buffer (100 mmol/L, pH 7.4)). The mixture was mixed for 10 seconds and pre-warmed in the incubation plate at 37° C. for 10 minutes. The metabolic reaction was initiated with the addition of 5 μL of the 100 μM working solution for test compound or positive control compounds to incubation plate (final test item concentration=1 μM). The reaction final mixture should contain 1 mM NADPH, 0.5 mg/mL microsomes protein and 1 μM test compound or positive control compound in 100 mM PBS at pH 7.4. The percentage of organic solvent in incubation mixture is 1% with DMSO ≤0.02%.
(§6) The reaction was quenched by transferring 50 μL of the incubated mixture at selected time points into the quenching plate containing 200 μL of cold methanol. After sampling of all the timepoints the quenching plate was centrifuged at 4000 rpm for 40 minutes to precipitate protein. A total of 90 μL of the supernatant was transferred to an analysis plate and ultra-pure H2O water is added into each well for LC/MS/MS analysis. All incubations and analysis were performed in duplicate.
(§7) All calculations were carried out using Microsoft Excel. The slope value, k, was determined by linear regression of the natural logarithm of the remaining percentage of the parent drug vs. incubation time curve.
(§8) The in vitro half-life (in vitro tin) was determined from the slope value: in vitro t1/2=−(0.693/k)
(§9) Conversion of the in vitro tin (in min) into the in vitro intrinsic clearance (in vitro CLint, in μL/min/mg proteins) was done using the following equation: […]
(Microsomes from liver hold many membrane-bound enzymes, among them those of drug oxidation.)

Data set [4] in a line: Metabolic stability in mouse liver microsomes. The class given is in vitro ADME. The following applies: mouse liver microsomes 0.5 mg/mL, 1 μM test compound, pH 7.4; for microsomal CLint at 1 μM: read-out: Mouse LM Clint. The protocol: as §2, §3, §4, §5, §6, §7, §8, §9
A further data set has as its target hERG potassium channel (Homo sapiens (Human), UniProt Q12809). Briefly: Effect on membrane potassium current IKr in hERG transfected CHO cells, Protocol 1 (QPatch). Type of data set: cell-based. In a few lines:
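Whole-cell automated patch clamp on CHO cells stably expressing hERG, held at −80 mV; the value is the tail current at −40 mV after a 2 s step to +60 mV, at pH 7.4 bath and pH 7.2 pipette. After 0.3% DMSO control, compound was applied at 3×10^−7 M, 3×10^−6 M, 10^−5 M and 3×10^−5 M, 5 min each. IC50 comes from a non-linear least-squares fit of block versus vehicle.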

The mark [5] stands for this setting: HTRF-30 min incubation IC50, 30 min incubation.
Setting [6] is: read-out: HTRF-30 min incubation IC50, 30 min incubation.

Sequence of hERG potassium channel (Q12809 whole entry): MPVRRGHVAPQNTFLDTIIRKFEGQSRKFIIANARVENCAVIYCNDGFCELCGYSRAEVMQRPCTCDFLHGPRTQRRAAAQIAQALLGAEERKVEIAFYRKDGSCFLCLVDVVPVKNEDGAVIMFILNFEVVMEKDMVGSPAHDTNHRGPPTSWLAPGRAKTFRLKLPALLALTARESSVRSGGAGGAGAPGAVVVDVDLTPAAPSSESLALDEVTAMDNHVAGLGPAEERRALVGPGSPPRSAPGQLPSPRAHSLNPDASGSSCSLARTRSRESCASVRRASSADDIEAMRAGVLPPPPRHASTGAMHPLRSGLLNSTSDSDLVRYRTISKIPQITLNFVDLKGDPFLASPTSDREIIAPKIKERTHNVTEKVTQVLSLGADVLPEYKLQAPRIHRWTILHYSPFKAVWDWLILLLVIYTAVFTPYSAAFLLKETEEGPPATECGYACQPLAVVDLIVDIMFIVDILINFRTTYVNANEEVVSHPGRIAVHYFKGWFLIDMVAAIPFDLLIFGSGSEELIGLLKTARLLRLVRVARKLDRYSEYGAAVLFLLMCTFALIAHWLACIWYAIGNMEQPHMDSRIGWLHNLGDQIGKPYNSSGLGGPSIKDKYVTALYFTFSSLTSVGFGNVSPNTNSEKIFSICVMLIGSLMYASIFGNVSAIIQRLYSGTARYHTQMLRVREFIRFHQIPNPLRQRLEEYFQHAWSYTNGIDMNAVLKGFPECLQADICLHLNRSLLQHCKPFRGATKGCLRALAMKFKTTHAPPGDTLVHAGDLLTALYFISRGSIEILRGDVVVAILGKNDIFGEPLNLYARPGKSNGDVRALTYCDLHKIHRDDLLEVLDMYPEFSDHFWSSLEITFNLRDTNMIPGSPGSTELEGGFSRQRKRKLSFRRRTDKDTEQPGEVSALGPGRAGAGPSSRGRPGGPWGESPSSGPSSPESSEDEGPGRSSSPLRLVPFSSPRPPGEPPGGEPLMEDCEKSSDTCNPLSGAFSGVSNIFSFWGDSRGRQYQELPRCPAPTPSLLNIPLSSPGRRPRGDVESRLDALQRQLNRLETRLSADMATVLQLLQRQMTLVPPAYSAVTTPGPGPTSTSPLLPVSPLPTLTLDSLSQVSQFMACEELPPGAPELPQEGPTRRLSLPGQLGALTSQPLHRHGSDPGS
Sequence of menin/MLL (terbium chelate-labeled menin, FITC-MBM1 peptide) (O00255 other isoform, or with tags, fused parts or gaps): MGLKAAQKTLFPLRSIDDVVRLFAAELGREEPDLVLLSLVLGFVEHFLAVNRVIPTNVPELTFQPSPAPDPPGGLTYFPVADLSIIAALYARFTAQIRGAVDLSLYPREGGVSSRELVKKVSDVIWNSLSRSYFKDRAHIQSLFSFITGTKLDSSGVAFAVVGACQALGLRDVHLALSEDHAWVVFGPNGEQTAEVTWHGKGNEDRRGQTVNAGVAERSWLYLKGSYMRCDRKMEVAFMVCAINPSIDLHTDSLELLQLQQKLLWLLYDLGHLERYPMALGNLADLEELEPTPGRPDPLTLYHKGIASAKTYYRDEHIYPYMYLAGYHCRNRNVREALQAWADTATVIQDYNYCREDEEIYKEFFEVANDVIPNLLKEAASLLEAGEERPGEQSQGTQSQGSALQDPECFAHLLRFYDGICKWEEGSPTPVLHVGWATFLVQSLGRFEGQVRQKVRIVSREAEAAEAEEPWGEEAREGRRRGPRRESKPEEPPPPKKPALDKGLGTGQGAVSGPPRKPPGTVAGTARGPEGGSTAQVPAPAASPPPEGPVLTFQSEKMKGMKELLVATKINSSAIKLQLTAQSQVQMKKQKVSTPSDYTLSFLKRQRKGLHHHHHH

Broadly, the IC50 is the concentration at which inhibition is half-maximal. The term half-life denotes how long it takes for the measured level to halve. A high value points to slow decline. Broadly, the bioavailability is dose-corrected exposure relative to a reference, in per cent. Higher therefore signals much systemic uptake. With `CCN(C)C[C@H](O)C[C@H](C(C)C)N1CC2(CCN(c3ncnnc3Oc3ccc(F)cc3C(=O)N(CC)C(C)C)C2)C1.O=C(O)/C=C/C(=O)O` (single isomer, unassigned) [Compound 346, N-ethyl-2-((5-(2-((3*R,5R)-6-(ethyl(methyl)amino)-5-hydroxy-2-methylhexan-3-yl)-2,6-diazaspiro[3.4]octan-6-yl)-1,2,4-triazin-6-yl)oxy)-5-fluoro-N-isopropylbenzamide fumarate], the IC50 was 0.058 nM in data set [1] (setting [5]); 36 nM in the data set with MOLM14 cells (Homo sapiens, MOLM-14, […]); 130 nM in the data set on OCI-AML3 cells (Homo sapiens, OCI-AML-3, […]); more than 15000 nM with KO-52 cells (Homo sapiens, […]); 33 nM in the data set on MEIS1 mRNA (Homo sapiens, MOLM-14, 48 h). This compound had a half-life in data set [2] (single IV 0.5 or 1.0 mg/kg) of 5.2 h. The compound also yielded a bioavailability in [2] (single PO 5 mg/kg) of 5.1%. The microsomal CLint at 1 μM in data set [3] is 11 µL/min/mg; in data set [4], less than 7.5 µL/min/mg.
On to `CNC(=O)CC[C@@H](C(C)C)N1CC2(CCN(c3ncnnc3Oc3ccc(F)cc3-c3cncnc3C3CC3)C2)C1` (single isomer, unassigned) [Compound 45, (*S)-4-(6-(6-(2-(4-cyclopropylpyrimidin-5-yl)-4-fluorophenoxy)-1,2,4-triazin-5-yl)-2,6-diazaspiro[3.4]octan-2-yl)-N,5-dimethylhexanamide], for which the IC50 in data set [1] (setting [6]) is 0.37 nM; in the data set with MOLM14 cells, 220 nM; in the data set on OCI-AML3 cells, 1250 nM; with KO-52 cells, more than 15000 nM; in the data set on MEIS1 mRNA it was 210 nM; at hERG potassium channel, 12600 nM. For the same compound, the “Human LM Clint” value in data set [3] was 43 µL/min/mg. Besides, the “Mouse LM Clint” value in [4] was determined as 110 µL/min/mg.
As for `CCN(C(=O)c1cc(F)ccc1Oc1nncnc1N1CCC2(C1)CN([C@H](CCCN(C)CCC#N)C(C)C)C2)C(C)C` [Compound 13], the IC50 was 0.4 nM in data set [1] (setting [5]); 61 nM with MOLM14 cells (Homo sapiens, MOLM-14, […]); 210 nM in the data set on OCI-AML3 cells (Homo sapiens, OCI-AML-3, […]); more than 15000 nM in the data set with KO-52 cells (Homo sapiens, […]); 77 nM in the data set on MEIS1 mRNA (Homo sapiens, MOLM-14, 48 h); 25700 nM against hERG potassium channel. The results for the microsomal CLint at 1 μM in data set [3] and in data set [4] were 75 µL/min/mg and 44 µL/min/mg, respectively.
Turning to `CCN(C(=O)c1cc(F)ccc1Oc1nncnc1N1CCC2(C1)CN([C@H](CCCO)C(C)C)C2)C(C)C` (single isomer, unassigned) [Compound 47, (*R)—N-ethyl-5-fluoro-2-((5-(2-(6-hydroxy-2-methylhexan-3-yl)-2,6-diazaspiro[3.4]octan-6-yl)-1,2,4-triazin-6-yl)oxy)-N-isopropylbenzamide], the IC50 in data set [1] (setting [6]) was 0.31 nM; in the data set on MOLM14 cells, 220 nM; in the data set with OCI-AML3 cells, 600 nM; in the data set on KO-52 cells, 10800 nM; in the data set on MEIS1 mRNA, 140 nM; against hERG potassium channel it was more than 30200 nM. Moreover, in data set [3], the “Human LM Clint” value turned out to be 38 µL/min/mg. In addition, the “Mouse LM Clint” value in [4] turned out to be 47 µL/min/mg.
For the compound `CCN(C(=O)c1cc(F)ccc1Oc1nncnc1N1CCC2(C1)CN([C@H](CCCNC(C)=O)C(C)C)C2)C(C)C` [Compound 6, (R)-2-((5(2-(6-acetamido-2-methylhexan-3-yl)-2,6-diazaspiro[3.4]octan-6-yl)-1,2,4-triazin-6-yl)oxy)-N-ethyl-5-fluoro-N-isopropylbenzamide formate], the IC50 is 0.61 nM in data set [1] (setting [5]); 480 nM with MOLM14 cells (Homo sapiens, MOLM-14, […]); 1860 nM in the data set with OCI-AML3 cells (Homo sapiens, OCI-AML-3, […]); more than 15000 nM in the data set on KO-52 cells (Homo sapiens, […]); 360 nM with MEIS1 mRNA (Homo sapiens, MOLM-14, 48 h). The microsomal CLint at 1 μM is 35 µL/min/mg in data set [3] and 28 µL/min/mg in [4].
For the compound `CC(C)[C@@H](CCCN(C)C)N1CC2(CCN(c3ncnnc3Oc3ccc(F)cc3C(=O)N(C(C)C)C(C)C)C2)C1` (single isomer, unassigned) [Compound 396, (*R)-2-((5-(2-(6-(dimethylamino)-2-methylhexan-3-yl)-2,6-diazaspiro[3.4]octan-6-yl)-1,2,4-triazin-6-yl)oxy)-5-fluoro-N,N-diisopropylbenzamide oxalate], the IC50 in [1] (setting [5]) was 0.08 nM; with MOLM14 cells (Homo sapiens, MOLM-14, […]), 23 nM; in the data set with OCI-AML3 cells (Homo sapiens, OCI-AML-3, […]) it was 140 nM; with KO-52 cells (Homo sapiens, […]), 8510 nM; in the data set on MEIS1 mRNA (Homo sapiens, MOLM-14, 48 h), 17 nM; against hERG potassium channel, more than 30200 nM. Besides, the microsomal CLint at 1 μM in data set [3] was 22 µL/min/mg; in data set [4], less than 7.5 µL/min/mg.
For `CCN(C(=O)c1cc(F)ccc1Oc1nnccc1N1CCC2(C1)CN([C@H](CCCN(C)CCOC)C(C)C)C2)C(C)C` (single isomer, unassigned) [Compound 83], the IC50 worked out at 170 nM with MOLM14 cells (Homo sapiens, MOLM-14, […]); 420 nM in the data set on OCI-AML3 cells (Homo sapiens, OCI-AML-3, […]); 6240 nM with KO-52 cells (Homo sapiens, […]); 92 nM in the data set on MEIS1 mRNA (Homo sapiens, MOLM-14, 48 h); 6000 nM against hERG potassium channel. The values for the microsomal CLint at 1 μM in data set [3] and in data set [4] were 539 µL/min/mg and more than 1000 µL/min/mg, respectively.
